Reference: PubChem BioAssay (NCI)
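GI50 is the concentration that inhibits growth by half. TGI marks complete inhibition of growth.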

What was measured:
Assay in all cases: inhibition of tumour cell growth, NCI panel, 384-well format
[1] = system: OVCAR-8 ovarian
[2] = system: NCI-H522 lung
[3] = system: SK-MEL-28 melanoma
[4] = system: SNB-75 CNS
[5] = system: M14 melanoma
[6] = system: NCI-H460 NSCLC
[7] = system: HL-60(TB) leukemia
[8] = system: UACC-62 melanoma
[9] = system: NCI-H23 lung
[10] = system: MCF7 breast
[11] = system: A549 NSCLC
[12] = system: COLO 205 colon
[13] = system: PC-3 prostate
[14] = system: MDA-MB-468 breast
[15] = system: CAKI-1 renal
[16] = system: IGROV1 ovarian
[17] = system: K-562 leukemia
[18] = system: MDA-MB-435 melanoma
[19] = system: BT-549 breast
[20] = system: MOLT-4 leukemia
[21] = system: LOX IMVI melanoma
[22] = system: RXF 393 renal
[23] = system: KM12 colon
[24] = system: HCC-2998 colon
[25] = system: HOP-92 NSCLC
[26] = system: SK-OV-3 ovarian
[27] = system: OVCAR-4 ovarian
[28] = system: U251 glioblastoma
[29] = system: SK-MEL-5 melanoma
[30] = system: OVCAR-5 ovarian
[31] = system: RPMI-8226 leukemia
[32] = system: HCT-15 colon
[33] = system: UACC-257 melanoma
[34] = system: SW-620 colon
[35] = system: SNB-19 CNS
[36] = system: MALME-3M melanoma
[37] = system: A498 renal
[38] = system: SR leukemia
[39] = system: SK-MEL-2 melanoma
[40] = system: NCI/ADR-RES ovarian
[41] = system: ACHN renal
[42] = system: HS 578T breast
[43] = system: 786-0 renal
[44] = system: TK-10 renal
[45] = system: T-47D breast
[46] = system: MDA-MB-231 breast
[47] = system: NCI-H322M lung

In the case of `COCCOc1cnc2ccn([C@H](C)c3nnc4c(F)cc(-c5cnn(C)c5)cn34)c(=O)c2c1`, the GI50 [1] is reported as > 100 µM, the TGI [1] is reported as > 100 µM and the GI50 [2] is reported as > 100 µM. The TGI [2] was > 100 µM, the GI50 [3] was > 100 µM and the TGI [3] was > 100 µM. For the same molecule, the GI50 [4] was > 100 µM, the TGI [4] was > 100 µM and the GI50 [5] was > 100 µM. For the same molecule, the TGI [5] was > 100 µM, the GI50 [6] was > 100 µM and the TGI [6] was > 100 µM. For the same molecule, the GI50 [7] was > 100 µM, the TGI [7] was > 100 µM and the GI50 [8] was 58.1 µM. For the same molecule, the TGI [8] was > 100 µM, the GI50 [9] was > 100 µM and the TGI [9] was > 100 µM. For the same molecule, the GI50 [10] was > 100 µM, the TGI [10] was > 100 µM and the GI50 [11] was > 100 µM. The TGI [11] was > 100 µM, the GI50 [12] was > 100 µM and the TGI [12] was > 100 µM. For the same molecule, the GI50 [13] was > 100 µM, the TGI [13] was > 100 µM and the GI50 [14] was > 100 µM. For the same molecule, the TGI [14] was > 100 µM, the GI50 [15] was > 56.9 µM and the TGI [15] was > 100 µM. The GI50 [16] was > 100 µM, the TGI [16] was > 100 µM and the GI50 [17] was > 100 µM. For the same molecule, the TGI [17] was > 100 µM, the GI50 [18] was > 100 µM and the TGI [18] was > 100 µM. For the same molecule, the GI50 [19] was > 100 µM, the TGI [19] was > 100 µM and the GI50 [20] was > 94 µM. For the same molecule, the TGI [20] was > 100 µM, the GI50 [21] was > 100 µM and the TGI [21] was > 100 µM. The GI50 [22] was > 100 µM, the TGI [22] was > 100 µM and the GI50 [23] was 24.5 µM. The TGI [23] was > 100 µM, the GI50 [24] was > 100 µM and the TGI [24] was > 100 µM. For the same molecule, the GI50 [25] was > 100 µM, the TGI [25] was > 100 µM and the GI50 [26] was > 100 µM. The TGI [26] was > 100 µM, the GI50 [27] was 98 µM and the TGI [27] was > 100 µM. The GI50 [28] was > 100 µM, the TGI [28] was > 100 µM and the GI50 [29] was > 100 µM. For the same molecule, the TGI [29] was > 100 µM, the GI50 [30] was > 100 µM and the TGI [30] was > 100 µM. For the same molecule, the GI50 [31] was > 100 µM, the TGI [31] was > 100 µM and the GI50 [32] was > 100 µM. For the same molecule, the TGI [32] was > 100 µM, the GI50 [33] was > 100 µM and the TGI [33] was > 100 µM. The GI50 [34] was > 100 µM, the TGI [34] was > 100 µM and the GI50 [35] was > 100 µM. The TGI [35] was > 100 µM, the GI50 [36] was > 100 µM and the TGI [36] was > 100 µM. The GI50 [37] was > 100 µM, the TGI [37] was > 100 µM and the GI50 [38] was 60.2 µM. For the same molecule, the TGI [38] was > 100 µM, the GI50 [39] was > 100 µM and the TGI [39] was > 100 µM. For the same molecule, the GI50 [40] was > 100 µM, the TGI [40] was > 100 µM and the GI50 [41] was > 100 µM. The TGI [41] was > 100 µM, the GI50 [42] was > 100 µM and the TGI [42] was > 100 µM. For the same molecule, the GI50 [43] was > 100 µM, the TGI [43] was > 100 µM and the GI50 [44] was > 100 µM. For the same molecule, the TGI [44] was > 100 µM, the GI50 [45] was > 100 µM and the TGI [45] was > 100 µM. The GI50 [46] was > 100 µM, the TGI [46] was > 100 µM and the GI50 [47] was > 100 µM. The TGI [47] was > 100 µM.
